Patent publication US5618948A, “Process for preparing an enantiomer of a carbazole derivative” (SmithKline Beecham p.l.c., priority 1995, dated 1997)

Molecular target: T1, 5-HT1 -like Receptor (Oryctolagus cuniculus, UniProt P49144)
T1 construct: the basilar artery removed with the aid of a dissecting microscope; from tissue; host or cells: rabbit basilar artery ring segments, endothelium removed
Test: 5-HT1-like Receptor Screen, rabbit isolated basilar artery (isometric tension, cumulative concentration-effect curves)
Format: cell-based
Conditions: endothelium removed, in presence of ascorbate, indomethacin, cocaine, ketanserin and prazosin
Experimental: 5-HT1 -like Receptor Screen
Experiments were performed in intracranial arteries from rabbit isolated basilar artery in a similar method to that described previously (Parsons and Whalley, 1989, Eur J Pharmacol 174, 189-196.)
In brief, rabbits were killed by overdose with anaesthetic (sodium pentobarbitone). The whole brain was quickly removed and immersed in ice cold modified Kreb's solution and the basilar artery removed with the aid of a dissecting microscope. The Krebs solution was of the following composition (mM) Na^+ (120); K^+ (5); Ca^2+ (2.25)Mg^2+(0.5); Cl^- (98.5); SO4^2- (1); ETDA (0.04), equilibrated with 95% O2 /5% CO2. The endothelium was removed by a gentle rubbing of the lumen with a fine metal wire. Arteries were then cut into ring segments (ca 4-5 mm wide) and set up for recording of isometric tension in 50 ml tissue baths in modified Krebs solution with the additional supplement of (mM); […] (20); fumarate (10); pyruvate (5); L-glutamate (5) and glucose (10). The arteries were then placed under a resting force of 3-4 mN maintained at 37° C. and the solution bubbled with 95% O2 /5% CO2.
After tests for initial reactivity with 90 mM KCl depolarising solution and for lack of acetylcholine-induced relaxation of 5-HT ([…]) precontraction, cumulative concentration-effect curves ([…]) to 5-HT were constructed in the presence of ascorbate […], cocaine […], indomethacin […], ketanserin […] and prazosin […].
Following a 45-60 min wash period, cumulative concentration-effect curves to the test compounds or 5-HT (as a time match control) were constructed in the presence of ascorbate, indomethacin, cocaine, ketanserin and prazosin.
R-(+)-6-carboxamido-3-N-methylamino-1,2,3,4-tetrahydrocarbazole; (compound A)
S-(-)-6-carboxamido-3-N-methylamino-1,2,3,4-tetrahydrocarbazole; (compound B)
R-(+)-6-carboxamido-3-N-ethylamino-1,2,3,4-tetrahydrocarbazole; (compound C)

T1 sequence (P49144 whole entry): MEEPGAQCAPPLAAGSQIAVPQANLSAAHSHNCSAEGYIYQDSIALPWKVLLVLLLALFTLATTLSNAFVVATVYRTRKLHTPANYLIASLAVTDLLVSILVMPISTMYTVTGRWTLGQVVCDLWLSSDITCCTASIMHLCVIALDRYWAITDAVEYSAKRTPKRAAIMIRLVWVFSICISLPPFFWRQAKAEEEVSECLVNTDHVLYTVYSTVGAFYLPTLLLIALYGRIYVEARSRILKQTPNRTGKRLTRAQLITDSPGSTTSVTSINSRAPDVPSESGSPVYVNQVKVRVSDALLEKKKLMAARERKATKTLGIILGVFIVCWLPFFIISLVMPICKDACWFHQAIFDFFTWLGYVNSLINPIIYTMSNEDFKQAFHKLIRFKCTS

| SMILES | EC50 [nM] |
| --- | --- |
| CN[C@@H]1CCc2[nH]c3ccc(C(N)=O)cc3c2C1 [Compound A, R-(+)-6-carboxamido-3-N-methylamino-1,2,3,4-tetrahydrocarbazole] | 30 |
| CN[C@H]1CCc2[nH]c3ccc(C(N)=O)cc3c2C1 [Compound B, S-(-)-6-carboxamido-3-N-methylamino-1,2,3,4-tetrahydrocarbazole] | > 2000 |
| CCN[C@@H]1CCc2[nH]c3ccc(C(N)=O)cc3c2C1 [Compound C, R-(+)-6-carboxamido-3-N-ethylamino-1,2,3,4-tetrahydrocarbazole] | 160 |
